Reference: article PMC11070402, “New antiproliferative 3-substituted oxindoles inhibiting EGFR/VEGFR-2 and tubulin polymerization” (Molecular Diversity, 2023)
“And” between values parts separate entries of the source, which are not always exact repeats. Equal entries are not always repeated. Where two headings read alike, the source gives them in different places.

Legend:
c-MET = test system: c-MET; parameters: method as in PMID 29758406; conditions: read-out: IC50 against c-MET; cited from earlier work
EGFR (L858R) = test system: EGFR (L858R); parameters: method as in PMID 29758406; conditions: read-out: IC50 against EGFR (L858R); cited from earlier work
EGFR (T790M) = test system: EGFR (T790M); parameters: method as in PMID 29758406; conditions: read-out: IC50 against EGFR (T790M); cited from earlier work
tubulin [1] = test system: tubulin; parameters: method as in PMID 34832895; conditions: read-out: IC50 tubulin assembly; cited from earlier work
EGFR = molecular target: T1, EGFR (Homo sapiens, UniProt P00533); parameters: method as in PMID 34832895; conditions: cited from earlier work
T1 construct: purchased

EGFR^WT kinase = molecular target: EGFR^WT kinase; parameters: method as in PMID 34798457; conditions: cited from earlier work
EGFR^L858R/T790M = test system: EGFR^L858R/T790M; parameters: method as in PMID 34798457; conditions: cited from earlier work
tubulin [2] = test: Tubulin polymerization inhibition assay; format: biochemical
tubulin [3] = test system: tubulin; parameters: method as in PMID 33038796; conditions: read-out: tubulin polymerization IC50; cited from earlier work
colchicine-binding site = molecular target: colchicine-binding site; parameters: method as in PMID 34649064; conditions: read-out: competitive inhibition at the colchicine-binding site IC50; cited from earlier work
[4] = test system: NCI/ADR-RES (ovarian cancer cell line); test: NCI one-dose assay, NCI/ADR-RES; format: cell-based; conditions: Homo sapiens; NCI/ADR-RES; 10 µM single dose, 48 h incubation; read-out: cell growth inhibition % (GI %)
Description: (§1) All novel scaffolds 6a–j were carefully selected by the National Cancer Institute (NCI), Bethesda, USA, to elucidate their cytotoxic activity versus 60 human cancer cell lines at 10 µM as a single-dose concentration after a 48 h incubation period.
(§2) National Cancer Institution selected all the synthesized 6a–j (NCI), Bethesda, USA, for in vitro one-dose antitumor assay. The methodology protocol for the NCI anticancer screening was reported in detail elsewhere (http://www.dtp.nci.nih.gov). The anticancer assay was performed in full NCI 60 cell lines extracted from nine tumor cell lines, including leukemia, melanoma, lung, colon, CNS, ovarian, renal, prostate, and breast cancer cell lines.

MCF-7 = test: NCI one-dose assay, MCF-7; format: cell-based, human; conditions: Homo sapiens, MCF7, MCF7 (Breast Cancer), 10 uM single dose; read-out: Growth inhibition %
Description: as §1, §2

K-562 = test: NCI one-dose assay, K-562; format: cell-based; conditions: Homo sapiens, K562; K-562 (Leukemia), 10 uM single dose; read-out: Growth inhibition %
Description: as §1, §2

[5] = test system: 60 human cancer cell lines; test: NCI one-dose assay against sixty NCI cancer cell lines; format: cell-based
Description: as §1, §2

UO-31 = test: NCI one-dose assay, UO-31; format: cell-based; conditions: Homo sapiens; UO-31 (Renal Cancer), 10 uM single dose; read-out: Growth inhibition %
Description: as §1, §2

SR = test: NCI one-dose assay, SR; format: cell-based; conditions: Homo sapiens; SR (Leukemia), 10 uM single dose; read-out: Growth inhibition %
Description: as §1, §2

SK-MEL-5 = test: NCI one-dose assay, SK-MEL-5; format: cell-based; conditions: Homo sapiens; SK-MEL-5 (Melanoma), 10 uM single dose; read-out: Growth inhibition %
Description: as §1, §2

T-47D = test: NCI one-dose assay, T-47D; format: cell-based; conditions: Homo sapiens, T47D; T-47D (Breast Cancer), 10 uM single dose; read-out: Growth inhibition %
Description: as §1, §2

[6] = test system: HOP-92 (non-small cell lung cancer cell line); test: NCI one-dose assay, HOP-92; format: cell-based; conditions: Homo sapiens; HOP-92 (Non-Small Cell Lung Cancer), 10 uM single dose; read-out: Growth inhibition %
Description: as §1, §2

[7] = test system: SNB-75 cells (CNS cancer cell line); test: NCI one-dose assay, SNB-75; format: cell-based; conditions: Homo sapiens; SNB-75 (CNS Cancer), 10 uM single dose; read-out: Growth inhibition %
Description: as §1, §2

MOLT-4 = test: NCI one-dose assay, MOLT-4; format: cell-based; conditions: Homo sapiens; MOLT-4 (Leukemia), 10 uM single dose; read-out: Growth inhibition %
Description: as §1, §2

VEGFR-2 = conditions: cited from earlier work
tubulin [8] = test system: tubulin; parameters: method as in doi:10.1016/j.molstruc.2022.132345; conditions: read-out: anti-tubulin activity IC50; cited from earlier work
[9] = test system: MCF-7 (human breast cancer); test: Cytotoxicity versus MCF-7 cell line (MTT assay); conditions: MCF7, read-out: MCF-7 (IC50 ± SD, uM)
[10] = test system: Human Skin Fibroblasts (HSF) cells; test: Margin of safety: cytotoxicity on human skin fibroblasts (SRB assay); format: cell-based
Description: Cell viability was assessed via SRB assay. Aliquots of 100 µl cell suspension (5 × 10^3 cells) were in 96-well plates and incubated in a complete media for 24 h. […] After 72 h of drug exposure, cells were fixed by replacing media with 150 µl of 10% TCA and incubated at 4 °C for 1 h. The TCA solution was removed, and the cells were washed 5 times with distilled water. Aliquots of […] SRB solution (0.4 w/v) were added and incubated in a dark place at room temperature for 10 min. Plates were washed 3 times with 1% acetic acid and allowed to air-dry overnight. Then, 150 µl of TRIS (10 mM) was added to dissolve the protein-bound SRB stain; the absorbance was measured at 540 nm using a BMG LAB TECH®-FLUO star Omega microplate reader (Ortenberg, Germany).

T1 sequence (P00533 25-1210): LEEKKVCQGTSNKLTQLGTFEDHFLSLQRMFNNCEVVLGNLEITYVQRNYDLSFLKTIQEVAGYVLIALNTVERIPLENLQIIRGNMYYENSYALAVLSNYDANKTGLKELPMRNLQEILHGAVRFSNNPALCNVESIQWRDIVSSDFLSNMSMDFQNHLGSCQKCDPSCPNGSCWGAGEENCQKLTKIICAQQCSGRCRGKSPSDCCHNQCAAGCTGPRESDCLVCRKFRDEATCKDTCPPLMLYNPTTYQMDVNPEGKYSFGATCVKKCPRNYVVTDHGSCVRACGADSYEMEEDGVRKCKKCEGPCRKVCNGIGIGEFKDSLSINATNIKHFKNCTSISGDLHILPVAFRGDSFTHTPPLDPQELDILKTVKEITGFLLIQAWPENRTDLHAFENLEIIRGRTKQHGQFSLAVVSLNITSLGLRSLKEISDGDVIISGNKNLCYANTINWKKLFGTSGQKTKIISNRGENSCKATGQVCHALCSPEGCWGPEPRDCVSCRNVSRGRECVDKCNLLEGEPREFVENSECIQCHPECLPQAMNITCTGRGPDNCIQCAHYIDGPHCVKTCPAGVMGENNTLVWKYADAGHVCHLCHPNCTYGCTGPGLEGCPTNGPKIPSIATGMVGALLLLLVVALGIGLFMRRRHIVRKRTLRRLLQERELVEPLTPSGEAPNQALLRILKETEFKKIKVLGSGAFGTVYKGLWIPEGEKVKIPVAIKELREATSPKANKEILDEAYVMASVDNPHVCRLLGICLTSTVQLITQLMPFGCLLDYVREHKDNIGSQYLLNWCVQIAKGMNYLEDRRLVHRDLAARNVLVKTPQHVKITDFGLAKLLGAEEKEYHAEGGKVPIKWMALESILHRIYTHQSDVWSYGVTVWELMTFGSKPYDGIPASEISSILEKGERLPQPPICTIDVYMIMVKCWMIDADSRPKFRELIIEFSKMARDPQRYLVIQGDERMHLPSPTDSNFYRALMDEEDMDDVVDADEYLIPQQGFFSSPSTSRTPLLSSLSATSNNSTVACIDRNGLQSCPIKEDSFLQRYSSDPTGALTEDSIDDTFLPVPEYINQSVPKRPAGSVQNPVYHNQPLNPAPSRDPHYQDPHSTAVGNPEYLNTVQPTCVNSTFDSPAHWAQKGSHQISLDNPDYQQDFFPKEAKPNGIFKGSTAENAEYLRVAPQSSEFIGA

CC(C)c1ccc(Cn2cc(-c3cc(-c4ccc(Br)cc4)nc(N)n3)c3ccccc32)cc1 [IV]
IC50 (c-MET): 595 nM | IC50 (EGFR (L858R)): 99 nM | IC50 (EGFR (T790M)): 94 nM

COc1cc(OC)c(C=C2C(=O)Nc3cc(Cl)ccc32)c(OC)c1 [XIII]
IC50 (tubulin [1]): 1660 nM | IC50 (EGFR): 549 nM

C=CC(=O)Nc1cc(Nc2nccc(-c3cn(C)c4ccccc34)n2)c(OC)cc1-n1cccc1CN(C)C [V]
IC50 (EGFR^WT kinase): 37 nM | IC50 (EGFR^L858R/T790M): 1.7 nM | selectivity versus EGFR^L858R/T790M over EGFR^WT kinase (EGFR^L858R/T790M): about 22 folds

COc1ccc(/C=C\c2cc(OC)c(OC)c(OC)c2)cc1O [CA-4, combretastatin A4]
%inh Tub (tubulin [2]; conc 0.1 (uM printed only in the CA-4 head)): […] | %inh Tub (tubulin [2]; conc 1 (uM printed only in the CA-4 head)): […] | %inh Tub (tubulin [2]; conc 10 (uM printed only in the CA-4 head)): […] | %inh Tub (tubulin [2]; conc 100 (uM printed only in the CA-4 head)): […] | IC50 (tubulin [2]; read-out: Tubulin polymerization inhibition (IC50 ± SD)): […] | IC50 (tubulin [1]): […] | IC50 (tubulin [3]): 2500 nM

Cc1cc(-c2cccc(-c3c[nH]c4ccccc34)n2)c2ccccc2n1 [XII]
IC50 (tubulin [3]): 5000 nM

COc1ccc2c(/C=C(\C)C(=O)c3cc(OC)c(OC)c([Se]C)c3)c[nH]c2c1 [XI]
IC50 (colchicine-binding site): 1300 nM

COc1ccc(C(=O)COc2ccc(C=C3C(=O)Nc4ccccc43)cc2)cc1 [Compound 6h, 3-{4-[2-(4-Methoxyphenyl)-2-oxoethoxy]benzylidene}indolin-2-one]
inhibition at 10 µM [4]: 43.7% | inhibition at 10 µM (MCF-7): 41.3% | inhibition at 10 µM (K-562): 39.7% | inhibition at 10 µM ([5]; BT-549 (Breast Cancer), 10 uM single dose, read-out: Growth inhibition %): 10.1% | inhibition at 10 µM ([5]; CAKI-1 (Renal Cancer), 10 uM single dose, read-out: Growth inhibition %): 26.4% | inhibition at 10 µM ([5]; CCRF-CEM (Leukemia), 10 uM single dose, read-out: Growth inhibition %): 14% | inhibition at 10 µM ([5]; HCT-15 (Colon Cancer), 10 uM single dose, read-out: Growth inhibition %): 15.2% | inhibition at 10 µM ([5]; HCT-116 (Colon Cancer), 10 uM single dose, read-out: Growth inhibition %): 25.4% | inhibition at 10 µM ([5]; HL-60(TB) (Leukemia), 10 uM single dose, read-out: Growth inhibition %): 20.8% | inhibition at 10 µM ([5]; HS 578T (Breast Cancer), 10 uM single dose, read-out: Growth inhibition %): 11.3% | inhibition at 10 µM ([5]; IGROV-1, IGROV1 (Ovarian Cancer), 10 uM single dose, read-out: Growth inhibition %): 23.7% | inhibition at 10 µM ([5]; M14 (Melanoma), 10 uM single dose, read-out: Growth inhibition %): 12.1% | inhibition at 10 µM ([5]; MDA-MB-231, read-out: Growth inhibition %): 10.8% | inhibition at 10 µM ([5]; NCI-H226 (Non-Small Cell Lung Cancer), 10 uM single dose, read-out: Growth inhibition %): 15.4% | inhibition at 10 µM ([5]; NCI-H522 (Non-Small Cell Lung Cancer), 10 uM single dose, read-out: Growth inhibition %): 17.2% | inhibition at 10 µM ([5]; OVCAR-3 (Ovarian Cancer), 10 uM single dose, read-out: Growth inhibition %): 18.3% | inhibition at 10 µM ([5]; OVCAR-8 (Ovarian Cancer), 10 uM single dose, read-out: Growth inhibition %): 15.9% | inhibition at 10 µM ([5]; PC-3 (Prostate Cancer), 10 uM single dose, read-out: Growth inhibition %): 36.1% | inhibition at 10 µM ([5]; RPMI-8226 (Leukemia), 10 uM single dose, read-out: Growth inhibition %): 25.4% | inhibition at 10 µM ([5]; SF-539 (CNS Cancer), 10 uM single dose, read-out: Growth inhibition %): 10.7% | inhibition at 10 µM ([5]; SK-OV-3 (Ovarian Cancer), 10 uM single dose, read-out: Growth inhibition %): 14.1% | inhibition at 10 µM ([5]; UACC-62 (Melanoma), 10 uM single dose, read-out: Growth inhibition %): 31.5% | inhibition at 10 µM (UO-31): 37.5% | inhibition at 10 µM (SR): 19.2% | melting point: 192 to 194 °C | inhibition at 10 µM (SK-MEL-5): 17.8% | inhibition at 10 µM (T-47D): 26.4% | inhibition at 10 µM [6]: 11.7% | inhibition at 10 µM [7]: 23.6% | inhibition at 10 µM (MOLT-4): 34.3%

Cc1ccc(Nc2cc(Oc3ccc4[nH]ccc4c3)ncn2)cc1S(N)(=O)=O [VII]
IC50 (VEGFR-2; read-out: IC50 versus VEGFR-2): 45 nM

COc1cc(NC(=O)/C(C#N)=C/c2c[nH]c3ccccc23)cc(OC)c1OC [X]
IC50 (tubulin [8]): 18000 nM

c1nc(Nc2ccc(N3CCOCC3)cc2)cc(Nc2ccc3[nH]ccc3c2)n1 [VIII]
IC50 (VEGFR-2; read-out: IC50 against VEGFR-2): 1200 nM

O=c1[nH]cc(F)c(=O)[nH]1 [5FU, 5-fluorouracil, reference compound]
IC50 [9]: 2.02 ± 0.17 µM | IC50 ([10]; HSF, Human Skin Fibroblasts, SRB assay, 72 h exposure, read-out: HSF (IC50 ± SD)): 5450 ± 20 nM | SI (selectivity index) ([10]; SI = IC50 for HSF / IC50 for MCF-7 cells): 2.70
